Experimental data: patent US20240180932A1, “S[…] COMPOUNDS IN THE MANAGEMENT OF AGEING AND RELATED DISORDERS” (SOCIETE DES PRODUITS NESTLE S.A., priority 2021, published 2024)

Columns and labels:
WT C. elegans = assay: Thermotolerance of C. elegans after a heat-shock of 37 C for 4 hours (survival, microfluidic Infinity System); assay type: in vivo; details: 48 hrs treatment
Procedure: FIG. 1. Compound 1 improves the thermotolerance of C. elegans, after a 37 C heat-shock. Day 1 adults were treated with 4 different concentrations of Compound 1 for 48 hrs at 20 C. Control is the no-drug-treated population. All compound solutions were made in NGM with 0.2% v/v DMSO, and the bacterial food source (20 mg/mL E. coli OP50). After 48 hrs of Compound 1 treatment, animals were exposed to 37 C for 4 hours and allowed to recover for 15 mins following which death scores were determined using the microfluidic Infinity System. One-way ANOVA test was used to compare the response from different doses. Multiple comparison test was conducted for pairwise comparison to identify the dosages which provide thermotolerance benefit.
It has been reported that exposing C. elegans to high temperatures increases the molecular stress and reduces animal lifespan. […] Importantly, this has been used to screen and evaluate the effectiveness of anti-ageing compounds. We monitored the survival of C. elegans after a thermal stress to determine whether Compound 1 could improve the ageing of these animals and at what concentrations this may occur. […] To achieve this, worms were maintained at their normal temperature (20 C) and then treated for 48-hour incubation with Compound 1 starting on adult day 1, followed by 4-hour heat challenge at 37 C, followed by 15 mins recovery and then death was recorded.

wild-type C. elegans = assay: Lifespan of wild-type C. elegans (microfluidic Infinity System); assay type: in vivo; set-up: Mean lifespan / Maximum lifespan: unit not given here
Procedure: (§1) FIG. 2. 10 μM Compound 1 extends the mean and maximum lifespan of C. elegans. 60-70 synchronized day 1 adult animals were loaded in each Infinity chip and treated with 0.5 μM or 10 μM of Compound 1, throughout life, and with fresh doses of OP50 bacteria (20 mg/ml) at 20 C, each day. Note that the control is the no drug treated population (0.2% v/v DMSO liquid NGM). […] Each day, at the same time, death scores were determined and three independent trials were conducted, with two technical replicates per trial.
To determine whether Compound 1 can extend lifespan, C. elegans were treated with 0.5 μM or 10 μM Compound 1 from day 1 of adulthood. The microfluidic Infinity System was used to assess the lifespan of Compound 1-treated and non-treated control worms. 60-70 synchronized day 1 adult animals were loaded in each Infinity chip and treated with 0.5 μM or 10 μM of Compound 1, lifelong, with daily fresh doses of 20 mg/mL of OP50 bacteria at 20 C. Control is the no-drug-treated population, maintained in 0.2% v/v DMSO liquid NGM. […] Each day, at the same time death scores were determined using the Infinity Code. Three independent trials with two technical replicates per trial were conducted.

[1] = tested on: AMPKα2 knockout C. elegans (aak-2); assay: Lifespan of AMPKα2 knockout C. elegans (aak-2); assay type: in vivo; set-up: Mean lifespan / Maximum lifespan: unit not given here
Procedure: as §1, with “3. […]” for “2. 10 μM Compound 1 extends the mean and maximum lifespan of C. elegans.”, “adult aak-2” for “adult”
We tested the ability of Compound 1 to extend lifespan in C elegans which have the AMP-activated protein kinase (AMPK) α2 subunit isoform deletion. This mutant strain (aak-2) is commonly used in lifespan studies to look at the dependence on activation of AMPK for mediating the lifespan and other effects of various compounds.

C. elegans = assay: Mobility of C. elegans (highly active, moderately active, inactive cohorts); assay type: in vivo; details: for Effect on percentage of highly active animals: Days 5, 8, 12, 15
Procedure: FIG. 4. […] To measure locomotory health related parameters the same video recordings that were captured for live/dead scoring were analyzed. The movements of the individual animals were tracked and animals were grouped into cohorts of different activity. This was achieved by determining how much of the animal body moved in a boundary box that encompasses it, in a duration of 30 seconds.
FIG. 5. […] The movements of the individual animals were tracked and animals were grouped into cohorts of different activity. This was achieved by determining how much of the animal body moved in a boundary box that encompasses it, in a duration of 30 seconds.
FIG. 6. […] The movements of the individual animals were tracked and animals were grouped into cohorts of different activity. This was achieved by determining how much of the animal body moved in a boundary box that encompasses it, in a duration of 30 seconds.
It is possible to measure the mobility of C. elegans and monitor this throughout the lifespan of the worms. As with many species, C. elegans display an age-related decline in mobility. […] Therefore, we tested whether Compound 1 could improve the mobility of C. elegans throughout their lifespan. To measure locomotory health related parameters the same video recordings that were captured for live/dead scoring were analyzed using the Infinity Code. The movements of the individual animals were tracked and animals were grouped into cohorts of different activity. The cohort analysis involved determining how much of the animal body moved in the boundary box that encompasses it, in a duration of 30 seconds.

Zebrafish larvae = assay: Autophagy induction in Zebrafish larvae (LC3-ZsGreen reporter, LC3 punctae); assay type: in vivo; details: 0.25, 0.5, 1 and 2.5 μM
Procedure: FIG. 7. Compound 1 increases autophagy in Zebrafish larvae. An autophagy reporter zebrafish line was generated by stable expression of the LC3 protein fused to ZsGreen under the control of a skeletal muscle specific promoter. Larvae from outcrossed transgenic zebrafish were raised at 28 C under standard laboratory conditions and have been treated at 48 h post-fertilization in 96 well plates with varying concentrations of Compound 1 at different concentrations as indicated in the figure. After 16 hours of treatment larvae were anesthetized with 0.016% tricaine and imaged with ImageXpress confocal system at 20× magnification (Molecular Devices). Z stack images were captured for each larva and maximal projection images were produced. Ammonium chloride (final concentration 100 mM) was added for an additional 4 h to block lysosomal degradation. Images were acquired again as before. In order to quantify autophagic flux, number of LC3 punctae have been calculated in presence and in absence of ammonium chloride with MetaXpress software (Molecular Devices) and normalized by zebrafish area.

[2] = Solubility in water-based solutions; assay type: physicochemical
[3] = aak-2, 0.5 μM, Pooled Trials 1 to 3
[4] = aak-2, 10 μM, Pooled Trials 1 to 3

C=C(C)[C@@H]1CCC(C)=C[C@H]1c1c(O)cc(CCCCC)c(C(=O)O)c1O [Compound 1, Cannabidiolic acid]
Survival after heat shock (WT C. elegans; 0.5 μM): small improvement in survival
Survival after heat shock (WT C. elegans; concentrations above 0.5 μM): almost a complete prevention of C. elegans death
% lifespan extension (wild-type C. elegans; 0.5 μM, Pooled Trials 1 to 3): 1.3%
Maximum lifespan (wild-type C. elegans; 0.5 μM, Pooled Trials 1 to 3): 26
Mean lifespan (wild-type C. elegans; 0.5 μM, Pooled Trials 1 to 3): 15.3 ± 5.4
% lifespan extension (wild-type C. elegans; 0.5 μM, Trial 1): 4.4%
Maximum lifespan (wild-type C. elegans; 0.5 μM, Trial 1): 25
Mean lifespan (wild-type C. elegans; 0.5 μM, Trial 1): 16.6 ± 5.8
% lifespan extension (wild-type C. elegans; 0.5 μM, Trial 2): 0%
Maximum lifespan (wild-type C. elegans; 0.5 μM, Trial 2): 26
Mean lifespan (wild-type C. elegans; 0.5 μM, Trial 2): 15.2 ± 5.7
% lifespan extension (wild-type C. elegans; 0.5 μM, Trial 3): 0%
Maximum lifespan (wild-type C. elegans; 0.5 μM, Trial 3): 26
Mean lifespan (wild-type C. elegans; 0.5 μM, Trial 3): 15.0 ± 5.4
Effect on mean and maximum lifespan (wild-type C. elegans; 10 μM): significantly extended mean and maximum lifespan
maximum lifespan extension (wild-type C. elegans; 10 μM): 2 days
mean lifespan extension (wild-type C. elegans; 10 μM): around 11%
% lifespan extension (wild-type C. elegans; 10 μM, Pooled Trials 1 to 3): 11.3%
Maximum lifespan (wild-type C. elegans; 10 μM, Pooled Trials 1 to 3): 27
Mean lifespan (wild-type C. elegans; 10 μM, Pooled Trials 1 to 3): 16.8 ± 5.6
% lifespan extension (wild-type C. elegans; 10 μM, Trial 1): 10%
Maximum lifespan (wild-type C. elegans; 10 μM, Trial 1): 27
Mean lifespan (wild-type C. elegans; 10 μM, Trial 1): 17.5 ± 5.8
% lifespan extension (wild-type C. elegans; 10 μM, Trial 2): 11.8%
Maximum lifespan (wild-type C. elegans; 10 μM, Trial 2): 27
Mean lifespan (wild-type C. elegans; 10 μM, Trial 2): 17.1 ± 5.9
% lifespan extension (wild-type C. elegans; 10 μM, Trial 3): 25%
Maximum lifespan (wild-type C. elegans; 10 μM, Trial 3): 26
Mean lifespan (wild-type C. elegans; 10 μM, Trial 3): 18.8 ± 6.0
ability to extend lifespan in aak-2 worms ([1]; aak-2, 0.5 μM or 10 μM): completely lost
% lifespan extension [1, 3]: −1.2%
Maximum lifespan [1, 3]: 26
Mean lifespan [1, 3]: 15.9 ± 4.2
% lifespan extension ([1]; aak-2, 0.5 μM, Trial 1): 0%
Maximum lifespan ([1]; aak-2, 0.5 μM, Trial 1): 25
Mean lifespan ([1]; aak-2, 0.5 μM, Trial 1): 16.0 ± 4.2
% lifespan extension ([1]; aak-2, 0.5 μM, Trial 2): −4.7%
Maximum lifespan ([1]; aak-2, 0.5 μM, Trial 2): 26
Mean lifespan ([1]; aak-2, 0.5 μM, Trial 2): 16.1 ± 4.0
% lifespan extension ([1]; aak-2, 0.5 μM, Trial 3): −3.7%
Maximum lifespan ([1]; aak-2, 0.5 μM, Trial 3): 25
Mean lifespan ([1]; aak-2, 0.5 μM, Trial 3): 15.6 ± 4.4
% lifespan extension [1, 4]: 0%
Maximum lifespan [1, 4]: 26
Mean lifespan [1, 4]: 16.1 ± 4.2
% lifespan extension ([1]; aak-2, 10 μM, Trial 1): −7.5%
Maximum lifespan ([1]; aak-2, 10 μM, Trial 1): 23
Mean lifespan ([1]; aak-2, 10 μM, Trial 1): 14.9 ± 3.8
% lifespan extension ([1]; aak-2, 10 μM, Trial 2): −4.1%
Maximum lifespan ([1]; aak-2, 10 μM, Trial 2): 26
Mean lifespan ([1]; aak-2, 10 μM, Trial 2): 16.2 ± 4.7
% lifespan extension ([1]; aak-2, 10 μM, Trial 3): 3.8%
Maximum lifespan ([1]; aak-2, 10 μM, Trial 3): 24
Mean lifespan ([1]; aak-2, 10 μM, Trial 3): 16.8 ± 3.5
Effect on percentage of highly active animals (C. elegans; 0.5 μM): increases the percentage of highly active animals at Day 8 only
Effect on moderately active worms (C. elegans; 0.5 μM, days 14 to 20): increases the number of moderately active worms
Effect on proportion of inactive worms (C. elegans; 0.5 μM, days 14 to 20): decreases the proportion of inactive worms
Effect on percentage of highly active animals (C. elegans; 10 μM): increases the percentage of highly active animals at Days 8, 12 and 15
Effect on proportion of highly active worms (C. elegans; 10 μM, days 14 and 20): increases the proportion of highly active worms
Effect on proportion of inactive worms (C. elegans; 10 μM, days 14 and 20): decreases the proportion of inactive worms
Mean % of Highly Active animals (C. elegans; Day 5, 0.5 μM): 83.7%
Mean % of Highly Active animals (C. elegans; Day 5, 10 μM): 89.3%
Mean % of Highly Active animals (C. elegans; Day 8, 0.5 μM): 75.7%
Mean % of Highly Active animals (C. elegans; Day 8, 10 μM): 78.1%
Mean % of Highly Active animals (C. elegans; Day 12, 0.5 μM): 45.2%
Mean % of Highly Active animals (C. elegans; Day 12, 10 μM): 49.7%
Mean % of Highly Active animals (C. elegans; Day 15, 0.5 μM): 18.3%
Mean % of Highly Active animals (C. elegans; Day 15, 10 μM): 23.7%
Autophagy (LC3) (Zebrafish larvae; 16 hours, without NH4Cl): dose-dependent increase in autophagy
Autophagy (LC3) (Zebrafish larvae; in the presence of NH4Cl): dose-dependent increase in autophagy
Solubility [2]: low solubility in water-based solutions
